# Experimental data as given in BindingDB's records for patent US10202375 (Redx Pharma PLC, 2019).
# Several values for one entry are separate records, joined by “and”; a condition that tells them apart may be missing. Equal entries are not always repeated.
# Molecular target: Protein Wnt-3a (Mus musculus, UniProt P27467)
# Experiment: Dual-Cell beta-Catenin Reporter Assay
# Protocol: Mouse L cells transfected to constitutively produce biologically active murine Wnt-3a, referred to as L-Wnt cells, were purchased from the American Type Culture Collection, ATCC, Manassas, Va. (ATCC). These cells were cultured in DMEM supplemented with 10% FCS (Gibco/Invitrogen, Carlsbad, Calif.), 1% geneticin and 1% sodium pyruvate (Sigma) at 37° C. with 5% CO2. The cells were seeded into 96 well plates and treated with serial dilutions of compound diluted to 0.1% DMSO concentration. After 24 hours, cell supernatants were transferred to a 96 well plate previously seeded with Leading Light Wnt Reporter Cells, stably transfected with a luciferase gene under control of Wnt pathway response elements. After a further 24 hours, cells are treated with One-glo luciferase assay system (Promega, Madison, Wis.) and the luminescent signal read by envision.
# Sequence of Protein Wnt-3a (P27467 whole entry): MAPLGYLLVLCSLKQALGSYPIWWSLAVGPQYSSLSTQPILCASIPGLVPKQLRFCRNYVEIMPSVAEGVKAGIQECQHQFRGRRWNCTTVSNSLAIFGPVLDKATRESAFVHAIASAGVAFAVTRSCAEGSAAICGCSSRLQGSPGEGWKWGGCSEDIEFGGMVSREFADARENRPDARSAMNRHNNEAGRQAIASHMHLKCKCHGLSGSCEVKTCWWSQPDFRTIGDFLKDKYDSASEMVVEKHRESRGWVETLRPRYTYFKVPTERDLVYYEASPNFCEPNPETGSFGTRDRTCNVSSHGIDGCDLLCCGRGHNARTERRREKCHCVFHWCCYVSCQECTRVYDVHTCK
row,SMILES,IC50
1,"Cc1cc(-c2nccc3c2ncn3CC(=O)Nc2ccc(-c3cnccn3)cn2)ccn1 [US10202375, Example 20]",3 nM
2,"Cc1cc(-c2nc(C)nc3c2ccn3CC(=O)Nc2ccc(-c3cnccn3)cn2)ccn1 [US10202375, Example 10]",< 1 nM and 0.32 nM
3,"Cc1cc(-c2ccnc3c2cnn3CC(=O)Nc2ccc(-c3cnccn3)nc2)ccn1 [US10202375, Example 15]",3 nM
